Earlier results as cited in US20240165036A1, “ENCAPSULATED VITAMIN D” (Nulixir Inc., priority 2022, published 2024).

Details: reference phases water and n-octanol; pH=7 unless stated otherwise

| Compound | log P |
| --- | --- |
| N[C@@H](Cc1c[nH]c2ccc(O)cc12)C(=O)O [Dispersion 5-HTP, 5-hydroxytryptophan] | ~−2 |
| O=C(O)c1cc(C(=O)O)c2c(n1)C(=O)C(=O)c1cc(C(=O)O)[nH]c1-2 [PQQ, pyrroloquinoline quinone] | ~0.4 |
| Cn1cnc2c1c(=O)[nH]c(=O)n2C [theobromine] | ~−0.78 |
| N[C@@H](Cc1ccccc1)C(=O)O [L-phenylalanine] | ~−1.38 |
| COc1ccc(/C=C/c2cc(OC)cc(=O)o2)cc1 [yangonin] | ~2.8 |
| COc1cc(O)c2c(=O)c(OC)c(-c3ccc(O)cc3)oc2c1 [kumatakenin] | ~2.5 |
| NCCCC(=O)O [GABA, gamma-aminobutyric acid] | ~−3 |
| O=C(/C=C/c1ccccc1)N1CCCC1 [(E)-1-cinnamoylpyrrolidine] | ~2.2 |
| CCNC(=O)CC[C@H](N)C(=O)O [L-theanine] | ~−3 |
